# From the supplement of paper PMC10307832
# Compound: CO[C@H]1C[C@@H]2CC[C@@H](C)[C@@](O)(O2)C(=O)C(=O)N2CCCC[C@H]2C(=O)O[C@H]([C@H](C)C[C@@H]2CC[C@@H](OCCO)[C@H](OC)C2)CC(=O)[C@H](C)/C=C(\C)[C@@H](O)[C@@H](OC)C(=O)[C@H](C)C[C@H](C)/C=C/C=C/C=C/1C [Everolimus]
# Test: relative viability (nuclei count vs DMSO), 5 days (fraction); higher = more cells survive
# In short: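 A plate was accepted only when its control CV was below 25% and the cells had doubled at least once. Viability is defined from nuclear counts as treated wells divided by vehicle wells, with the median taken across plates. That median covers lung cancer cell lines grown in 1536-well plates, dosed by pinning at five √10-spaced library-drug concentrations, and counted in MetaXpress from 4× Hoechst images after 5 days.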
cell line,measurement,setting,value
NCI-H661,relative viability,0.01 µM,0.812
same,relative viability,0.03162 µM,0.814
same,relative viability,0.1 µM,0.786
same,relative viability,0.3162 µM,0.746
same,relative viability,1 µM,0.667
NCI-H727,relative viability,0.01 µM,0.67
same,relative viability,0.03162 µM,0.537
same,relative viability,0.1 µM,0.518
same,relative viability,0.3162 µM,0.608
same,relative viability,1 µM,0.552
NCI-H838,relative viability,0.01 µM,0.603
same,relative viability,0.03162 µM,0.561
same,relative viability,0.1 µM,0.468
same,relative viability,0.3162 µM,0.516
same,relative viability,1 µM,0.51
NCI-H1299,relative viability,0.01 µM,0.969
same,relative viability,0.03162 µM,0.98
same,relative viability,0.1 µM,1.01
same,relative viability,0.3162 µM,0.974
same,relative viability,1 µM,1.04
NCI-H1355,relative viability,0.01 µM,0.666
same,relative viability,0.03162 µM,0.537
same,relative viability,0.1 µM,0.552
same,relative viability,0.3162 µM,0.628
same,relative viability,1 µM,0.48
NCI-H1395,relative viability,0.01 µM,0.765
same,relative viability,0.03162 µM,0.627
same,relative viability,0.1 µM,0.683
same,relative viability,0.3162 µM,0.647
same,relative viability,1 µM,0.727
NCI-H1437,relative viability,0.01 µM,0.875
same,relative viability,0.03162 µM,0.795
same,relative viability,0.1 µM,0.767
same,relative viability,0.3162 µM,0.738
same,relative viability,1 µM,0.621
NCI-H1563,relative viability,0.01 µM,0.767
same,relative viability,0.03162 µM,0.761
same,relative viability,0.1 µM,0.715
same,relative viability,0.3162 µM,0.728
same,relative viability,1 µM,0.676
NCI-H1648,relative viability,0.01 µM,0.646
same,relative viability,0.03162 µM,0.778
same,relative viability,0.1 µM,0.718
same,relative viability,0.3162 µM,0.596
same,relative viability,1 µM,0.654
NCI-H1650,relative viability,0.01 µM,0.761
same,relative viability,0.03162 µM,0.879
same,relative viability,0.1 µM,0.828
same,relative viability,0.3162 µM,0.85
same,relative viability,1 µM,0.868
NCI-H1651,relative viability,0.01 µM,0.749
same,relative viability,0.03162 µM,0.71
same,relative viability,0.1 µM,0.691
same,relative viability,0.3162 µM,0.663
same,relative viability,1 µM,0.645
NCI-H1666,relative viability,0.01 µM,0.952
same,relative viability,0.03162 µM,0.858
same,relative viability,0.1 µM,0.853
same,relative viability,0.3162 µM,0.886
same,relative viability,1 µM,0.898
NCI-H1703,relative viability,0.01 µM,0.455
same,relative viability,0.03162 µM,0.373
same,relative viability,0.1 µM,0.456
same,relative viability,0.3162 µM,0.529
same,relative viability,1 µM,0.63
NCI-H1734,relative viability,0.01 µM,0.648
same,relative viability,0.03162 µM,0.692
same,relative viability,0.1 µM,0.602
same,relative viability,0.3162 µM,0.615
same,relative viability,1 µM,0.742
NCI-H1755,relative viability,0.01 µM,0.919
same,relative viability,0.03162 µM,0.865
same,relative viability,0.1 µM,0.749
same,relative viability,0.3162 µM,0.819
same,relative viability,1 µM,0.816
NCI-H1792,relative viability,0.01 µM,0.478
same,relative viability,0.03162 µM,0.336
same,relative viability,0.1 µM,0.363
same,relative viability,0.3162 µM,0.349
same,relative viability,1 µM,0.379
NCI-H1793,relative viability,0.01 µM,0.435
same,relative viability,0.03162 µM,0.305
same,relative viability,0.1 µM,0.351
same,relative viability,0.3162 µM,0.376
same,relative viability,1 µM,0.299
NCI-H1915,relative viability,0.01 µM,0.955
same,relative viability,0.03162 µM,0.863
same,relative viability,0.1 µM,0.82
same,relative viability,0.3162 µM,0.875
same,relative viability,1 µM,0.866
NCI-H1944,relative viability,0.01 µM,0.636
same,relative viability,0.03162 µM,0.687
same,relative viability,0.1 µM,0.575
same,relative viability,0.3162 µM,0.789
same,relative viability,1 µM,0.626
NCI-H1975,relative viability,0.01 µM,0.73
same,relative viability,0.03162 µM,0.798
same,relative viability,0.1 µM,0.793
same,relative viability,0.3162 µM,0.734
same,relative viability,1 µM,0.677
